From patent US20190364896A1, “SYNERGISTIC WEED CONTROL FROM APPLICATIONS OF PYRIDINE CARBOXYLIC ACID HERBICIDES AND ALS INHIBITORS” (Dow AgroSciences LLC, priority 2014, published 2019)
Like-named read-outs stand apart in the source and are kept apart here.

How the values were obtained:
[1] = tested on: brown mustard (Brassica juncea, BRSJU); assay: Postemergence herbicidal activity, greenhouse trial (visual injury 0-100%); type: in vivo; conditions: bensulfuron 17.5 g ai/ha
[2] = tested on: winter rape (Brassica napus, BRSNW); assay: as above; type: in vivo
[3] = tested on: wild pansy (Viola tricolor, VIOTR); assay: as above; type: in vivo; conditions: Viola tricolor, post-emergence, read-out: % visual injury Obs
Summary of the method: (§1)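 Greenhouse plants at the 2nd–3rd true-leaf stage (14 h photoperiod, ~23/22 °C) were track-sprayed at 187 L/ha with acetone/DMSO stocks diluted in 1.5% v/v crop oil concentrate. Rates were g ae/ha for component (a) and g ai/ha for (b). Injury versus solvent-blank controls was rated visually at 20–22 d, with Colby's equation giving expected mixture effects.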

[4] = tested on: sunflower (Helianthus annuus, HELAN); assay: as above; type: in vivo
[5] = tested on: winter wheat (Triticum aestivum, TRZAW); assay: Postemergence crop injury (phytotoxicity), greenhouse trial (visual injury 0-100%)
Description: (§2) Seeds of the desired test plant species were planted in Sun Gro MetroMix® 306 planting mixture, which typically has a pH of 6.0 to 6.8 and an organic matter content of about 30 percent, in plastic pots with a surface area of 103.2 square centimeters (cm^2). […] The plants were grown for 7-36 days (d) in a greenhouse with an approximate 14-hour (h) photoperiod which was maintained at about 23° C. during the day and 22° C. during the night. Nutrients and water were added on a regular basis and supplemental lighting was provided with overhead metal halide 1000-Watt lamps as necessary. The plants were employed for testing when they reached the second or third true leaf stage.
(§3) Weighed amounts of technical material were dissolved in a volume of 97:3 volume per volume (v/v) acetone/dimethyl sulfoxide (DMSO) to stock solutions. […] The concentrated stock solutions were diluted with an aqueous mixture of 1.5% v/v of Agri-dex crop oil concentrate to provide the appropriate application rates. Compound requirements are based upon a 12 milliliter (mL) application volume at a rate of 187 liters per hectare (L/ha). Spray solutions of the experimental compound mixtures were prepared by adding the stock solutions to the appropriate amount of dilution solution to form a 12 mL spray solution in two-way combinations. Formulated compounds were applied to the plant material with an overhead Mandel track sprayer equipped with 8002E nozzles calibrated to deliver 187 L/ha over an application area of 0.503 square meters (m^2) at a spray height of 18 inches (43 centimeters (cm)) above average plant canopy. Control plants were sprayed in the same manner with the solvent blank. Application rates for component (a) are in g ae/ha, and application rates for component (b) are in g ai/ha.
(§4) The treated plants and control plants were placed in a greenhouse as described above and watered by sub-irrigation to prevent wash-off of the test compounds. After 20-22 d, the condition of the test plants as compared with that of the control plants was determined visually and scored on a scale of 0 to 100 percent where 0 corresponds to no injury and 100 corresponds to complete kill. The condition of the test plants was compared with that of the control plants as determined visually and scored on a scale of 0 to 100 percent, where 0 corresponds to no injury and 100 corresponds to complete kill. Colby's equation was used to determine the herbicidal effects expected from the mixtures.
Compound 2 was combined with florasulam and applied to winter wheat (TRZAW) and the phytotoxicity of the herbicidal composition was measured. In addition, the efficacy of the herbicidal composition on poinsettia (Euphorbia heterophylla, EPHHL) and […] (Cyperus esculentus, CYPES) was evaluated.
Weighed amounts of technical or formulated material (emulsifiable concentrate (EC) or soluble concentrate (SL)) were dissolved in a volume of 97:3 volume per volume (v/v) acetone/dimethyl sulfoxide (DMSO) to stock solutions. […] The concentrated stock solutions were diluted with an aqueous mixture of 1.5% v/v of Agri-dex crop oil concentrate to provide the appropriate application rates. Compound requirements are based upon a 12 milliliter (mL) application volume at a rate of 187 liters per hectare (L/ha). Spray solutions of the experimental compound mixtures were prepared by adding the stock solutions to the appropriate amount of dilution solution to form a 12 mL spray solution in two-way combinations. […]

[6] = tested on: common lambsquarters (Chenopodium album L., CHEAL); assay: Postemergence herbicidal activity, greenhouse trial (visual injury 0-100%); type: in vivo
Summary of the method: as §1

[7] = tested on: ivyleaf morning-glory (Ipomoea hederacea, IPOHE); assay: as above; type: in vivo
Summary of the method: as §1

[8] = tested on: maize (Zea mays, ZEAMX); assay: Postemergence crop injury (phytotoxicity), greenhouse trial (visual injury 0-100%)
Description: as §2
(§5) Weighed amounts of technical or formulated material (emulsifiable concentrate (EC) or soluble concentrate (SL)) were dissolved in a volume of 97:3 volume per volume (v/v) acetone/dimethyl sulfoxide (DMSO) to stock solutions. […] The concentrated stock solutions were diluted with an aqueous mixture of 1.5% v/v of Agri-dex crop oil concentrate to provide the appropriate application rates. Compound requirements are based upon a 12 milliliter (mL) application volume at a rate of 187 liters per hectare (L/ha). Spray solutions of the experimental compound mixtures were prepared by adding the stock solutions to the appropriate amount of dilution solution to form a 12 mL spray solution in two-way combinations. Formulated compounds were applied to the plant material with an overhead Mandel track sprayer equipped with 8002E nozzles calibrated to deliver 187 L/ha over an application area of 0.503 square meters (m^2) at a spray height of 18 inches (43 centimeters (cm)) above average plant canopy. Control plants were sprayed in the same manner with the solvent blank. Application rates for component (a) are in g ae/ha, and application rates for component (b) are in g ai/ha.
as §4
(§6) Compound 1 was formulated as an EC and was combined with florasulam, cloransulam, diclosulam, flumetsulam, penoxsulam, or pyroxsulam. Compound 2 was formulated as an EC and was combined with florasulam or pyroxsulam. The mixtures were applied to winter wheat (TRZAW), common rice (ORYSA), maize (ZEAMX), and the phytotoxicity of the herbicidal compositions was measured. In addition, the efficacy of the herbicidal compositions on blackgrass (Alopecurus myosuroides, ALOMY), pigweed (Amaranthus retrollexus, AMARE), wild oat (Avena fatua, AVEFA), common lambsquarters (Chenopodium album L., CHEAL), thistle (Cirsium arvense CIRAR), nutsedge (Cyperus esculentus, CYPES), barnyardgrass (Echinochloa crus-galli, ECHCG), poinsettia (Euphorbia heterophylla, EPHHL), ivyleaf morning-glory (Ipomoea hederacea, IPOHE), kochia (Kochia scoparia, KCHSC), wild buckwheat (Polygonum convolvulus, POLCO), grain sorghum (Sorghum vulgare, SORVU), chickweed (Stellaria media, STEME), wild pansy (Viola tricolor, VIOTR), was evaluated.
(§7) Weighed amounts of technical material were dissolved in a volume of 97:3 volume per volume (v/v) acetone/dimethyl sulfoxide (DMSO) to stock solutions. […] The concentrated stock solutions were diluted with an aqueous mixture of 1.5% v/v of Agri-dex crop oil concentrate to provide the appropriate application rates. Compound requirements are based upon a 12 milliliter (mL) application volume at a rate of 187 liters per hectare (L/ha). […]

[9] = tested on: common rice (Oryza sativa, ORYSA); assay: as above
Description: as §2, §5, §4, §6, §7

[10] = tested on: pigweed (Amaranthus retroflexus, AMARE); assay: Postemergence herbicidal activity, greenhouse trial (visual injury 0-100%); type: in vivo
Summary of the method: as §1

[11] = tested on: kochia (Kochia scoparia, KCHSC); assay: as above; type: in vivo
Summary of the method: as §1

[12] = tested on: poinsettia (Euphorbia heterophylla, EPHHL); assay: as above; type: in vivo
Summary of the method: (§8)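 Greenhouse-grown plants at the second to third true leaf stage were sprayed with two-way mixtures in 1.5% v/v Agri-dex crop oil concentrate at 187 L/ha; rates in g ae/ha for component (a) and g ai/ha for component (b). Injury scored visually 0–100% versus solvent-blank controls after 20–22 d, with expected mixture effects from Colby's equation.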

[13] = tested on: nutsedge (Cyperus esculentus, CYPES); assay: as above; type: in vivo; conditions: Cyperus, post-emergence, read-out: % visual injury Obs
Summary of the method: as §8

[14] = tested on: turnip (Brassica rapa, BRSRR); assay: as above; type: in vivo; conditions: 11.2 g ai/ha
Description: as §2, §3, §4
(§9) Compound 1 was formulated as an EC and was combined with imazamox, imazamethabenz, imazapic, imazapyr or imazethapyr. The mixtures were applied to winter wheat (TRZAW) and/or maize (ZEAMX), and the phytotoxicity of the herbicidal compositions was measured. In addition, the efficacy of the herbicidal compositions on blackgrass (Alopecurus myosuroides, ALOMY), wild oat (Avena fatua, AVEFA), winter rape (Brassica napus, BRSNW), spring rape (Brassica napus, BRSNN), turnip (Brassica rapa, BRSRR), thistle (Cirsium arvense, CIRAR), large crabgrass (Digitaria sanguinalis, DIGSA), pigweed (Amaranthus retrollexus, AMARE), common lambsquarters (Chenopodium album L., CHEAL), poinsettia (Euphorbia heterophylla, EPHHL), ivyleaf morning-glory (Ipomoea hederacea, IPOHE), kochia (Kochia scoparia, KCHSC), wild buckwheat (Polygonum convolvulus, POLCO), grain sorghum (Sorghum vulgare, SORVU), chickweed (Stellaria media, STEME), wild pansy (Viola tricolor, VIOTR), sunflower (Helianthus annuus, HELAN), giant foxtail (Setaria faberi, SETFA), soybean (Glycine max, GLXMA), rutabaga (Brassica napus var. napobrassica, BRSNA) and barnyardgrass (Echinochloa crus-galli, ECHCG) was evaluated.

[15] = tested on: spring rape (Brassica napus, BRSNN); assay: as above; type: in vivo; conditions: 11.2 g ai/ha
[16] = tested on: wild buckwheat (Polygonum convolvulus, POLCO); assay: as above; type: in vivo; conditions: Fallopia convolvulus, post-emergence, 11.2 g ai/ha; read-out: % visual injury Obs
Summary of the method: as §1

[17] = tested on: thistle (Cirsium arvense, CIRAR); assay: as above; type: in vivo; conditions: Cirsium arvense, post-emergence, read-out: % visual injury Obs
Summary of the method: as §1

[18] = tested on: rutabaga (Brassica napus var. napobrassica, BRSNA); assay: as above; type: in vivo; conditions: 17.5 g ai/ha
Description: as §2, §3, §4, §9

[19] = tested on: barnyardgrass (Echinochloa crus-galli, ECHCG); assay: as above; type: in vivo
Summary of the method: as §1

[20] = tested on: wild oat (Avena fatua, AVEFA); assay: as above; type: in vivo
Summary of the method: as §1

[21] = tested on: blackgrass (Alopecurus myosuroides, ALOMY); assay: as above; type: in vivo; conditions: 17.5 g ai/ha
Summary of the method: as §1

[22] = tested on: large crabgrass (Digitaria sanguinalis, DIGSA); assay: as above; type: in vivo; conditions: 17.5 g ai/ha
[23] = tested on: soybean (Glycine max, GLXMA); assay: as above; type: in vivo; conditions: 100 g ai/ha
Description: as §2, §3, §4, §9

[24] = tested on: grain sorghum (Sorghum vulgare, SORVU); assay: as above; type: in vivo; conditions: 100 g ai/ha
Summary of the method: as §1

[25] = tested on: chickweed (Stellaria media, STEME); assay: as above; type: in vivo; conditions: 100 g ai/ha
Summary of the method: as §1

COC(=O)c1ccccc1CS(=O)(=O)NC(=O)Nc1nc(OC)cc(OC)n1
% visual injury Obs [1]: 93%
% visual injury Obs ([2]; BRSNW, bensulfuron 17.5 g ai/ha): 70%
pest or weed control at 17.5 g/ha ([3]; VIOTR, bensulfuron 17.5 g ai/ha): 0%
% visual injury Obs ([4]; HELAN, bensulfuron 17.5 g ai/ha): 10%

COc1ncc(F)c2nc(S(=O)(=O)Nc3c(F)cccc3F)nn12 [Florasulam, florasulam]
% visual injury Obs ([5]; 1.25 g ai/ha): 0%
% visual injury Obs ([5]; 2.5 g ai/ha): 0%
pest or weed control at 1.25 g/ha ([6]; Chenopodium album, post-emergence, read-out: % visual injury Obs): 0%
pest or weed control at 1.25 g/ha ([7]; Ipomoea hederacea, post-emergence, read-out: % visual injury Obs): 98%
% visual injury Obs ([8]; 1.25 g ai/ha): 0%
% visual injury Obs ([8]; 2.5 g ai/ha): 0%
% visual injury Obs ([9]; 1.25 g ai/ha): 0%
% visual injury Obs ([9]; 2.5 g ai/ha): 0%
pest or weed control at 1.25 g/ha ([10]; Amaranthus retroflexus, post-emergence, read-out: % visual injury Obs): 75%
pest or weed control at 2.5 g/ha ([11]; Bassia scoparia, post-emergence, read-out: % visual injury Obs): 60%
pest or weed control at 1.25 g/ha ([12]; Euphorbia heterophylla, post-emergence, read-out: % visual injury Obs): 0%
pest or weed control at 1.25 g/ha [13]: 15%
pest or weed control at 2.5 g/ha [13]: 75%

COCc1cnc(C2=NC(C)(C(C)C)C(=O)N2)c(C(=O)O)c1 (centres unmarked) [Imazamox, imazamox]
% visual injury Obs [14]: 70%
% visual injury Obs [15]: 75%
pest or weed control at 11.2 g/ha [16]: 65%
pest or weed control at 11.2 g/ha ([17]; 11.2 g ai/ha): 70%

CCc1cnc(C2=NC(C)(C(C)C)C(=O)N2)c(C(=O)O)c1 (centres unmarked) [Imazethapyr, imazethapyr]
% visual injury Obs [18]: 20%
pest or weed control at 17.5 g/ha ([19]; Echinochloa crus-galli, post-emergence, 17.5 g ai/ha, read-out: % visual injury Obs): 70%
% visual injury Obs ([20]; 17.5 g ai/ha): 10%
% visual injury Obs [21]: 10%
% visual injury Obs [22]: 30%
% visual injury Obs ([2]; 17.5 g ai/ha): 75%
pest or weed control at 17.5 g/ha ([3]; 17.5 g ai/ha): 5%
pest or weed control at 17.5 g/ha ([17]; 17.5 g ai/ha): 30%

imazamethabenz
% visual injury Obs [23]: 30%
% visual injury Obs ([6]; 100 g ai/ha): 20%
% visual injury Obs ([19]; 100 g ai/ha): 5%
% visual injury Obs ([20]; 100 g ai/ha): 20%
% visual injury Obs [24]: 0%
% visual injury Obs ([7]; 100 g ai/ha): 0%
% visual injury Obs [25]: 10%
% visual injury Obs ([2]; 100 g ai/ha): 65%
% visual injury Obs ([10]; 100 g ai/ha): 0%
% visual injury Obs ([11]; 100 g ai/ha): 0%
% visual injury Obs ([4]; 100 g ai/ha): 5%
% visual injury Obs ([12]; 100 g ai/ha): 50%
